Data from patent US8679765B2, “Methods and compositions for diagnosis and treatment of malignant and non-malignant gammopathies” (Ludwig Institute for Cancer Research Ltd., priority 2009, dated 2014).

Legend:
[1] = biological target: hyperphosphorylation of Paratarg; experiment: Inhibition experiments: LCLs cultured with kinase inhibitors, IEF and immunodetection with anti-STOML2; assay type: cell-based, human; conditions: IEF analysis; for effect on hyperphosphorylation of paratarg: LCLs of healthy donors or patients
Description: LCLs derived from healthy donors or patients were cultured in the presence of the kinase inhibitors at the indicated concentrations. Lysates were analysed by IEF and immunodetected with anti-STOML2. A shown in this figure, hyperphosphorylation is inhibited by staurosporine, ellagic acid and wortmannin. […] Using BIM_I and Rottlerin, PKC isoform delta or zeta could be identified as responsible for hyperphosphorylation. • a) Same as b), but with other concentrations of the inhibitors.
LCLs were established by infection of PBMCs with EBV as described by Neumann et al (Blood 2005; 106:3105-13).
Stably transfected cell lines were cultured in the presence of inhibitory compounds as indicated. After 5 d cells were removed and analysed by IEF and immunodetection.
In MGUS/MM patients and their relatives hyperphosphorylated paratarg is expressed constitutively, while hyperphosphorylation of paratarg is temporary in all healthy persons and cell lines analysed. This was seen by culturing LCLs and cell lines in the presence of kinase or phosphatase inhibitors. The identification of Ser17 as the differential phosphorylation site led to the prediction of a […] (PKC) responsible for hyperphosphorylation. Culturing of LCLs and cell lines in the presence of suitable inhibitors (staurosporine, Wortmannin, Bisindolylmaleimid I) at concentrations as indicated below and followed by IEF analysis identifies the PKCzeta isoform as the active kinase (summarized in FIG. 16). This was verified by using highly specific PKCzeta pseudosubstrate as inhibitor (FIG. 16d). […] (FIG. 18).

[2] = test system: paraproteins of serum pool #1 (MGUS/MM patients' sera); experiment: Serum profiling on high density protein arrays (paraprotein screening of hEx1 human fetal brain macroarray); assay type: binding; design: key: Paraprotein-binding quality/strength are ++, + and ±.; Paraprotein-binding quality/strength are ++, + and ±.; Paraprotein-binding quality/strength are ++, + and ±; conditions: serum pool #1 (n=114), each serum diluted 1:10^8
Description: Screening analyses were performed on hEx1 high-density protein expression cDNA libraries, created in Hans Lehrach's laboratory at the Max Planck Institute for Molecular Genetics in Berlin (Germany) and obtained from the Reference Center of the German Human Genome Project (RZPD) (Bussow et al, 1998). These high-density filter membranes display proteins that were expressed from a modified pQE protein expression vector (Qiagen). This vector featured a hexahistidine tag, a T5 promoter and two lac operator sequences, which allowed repression during the growth phase by overexpression of the Lac repressor protein, and subsequent induction of protein expression with isopropyl-beta-D-thiogalactopyranoside (IPTG).
High density protein arrays of the protein expression set of the hEx1 library were obtained from the German Resource Center for Genome Research (RZPD) and provided by Dr. Mahlknecht from our department. They consist of 37,200 independent clones derived from a human fetal brain cDNA expression library and were used for autoantibody detection. For serum profiling, the filters were blocked in 10% (w/v) non-fat, dry milk powder in TBST (TBS, 0.1% (v/v) Tween 20) at 4° C. overnight, washed twice in TBST, and incubated for 1 h with serum pool #1 at a dilution of 1:10^8 for each serum. Following three 30-min TBST washes and subsequent incubation with the secondary antibody (goat anti-human IgG biotinylated, Dianova, diluted 1:2.500) and Strep-PDX (1:15.000) in 2% (w/v) Milk/TBST, the filters were washed three times for 30 min in TBST. This was followed by detection using Pharmacia ECL system. Positive signals were localized according to the manufacturer's protocol. Corresponding clones were obtained from RZPD.
In this study we screened a human high-density protein array containing 37,200 independent recombinant proteins derived from a human fetal brain expression library with sera obtained from patients with monoclonal gammopathy of undetermined significance (MGUS) and multiple myeloma (MM).
The signal pattern obtained from the screening with the paraprotein pools at a dilution of 1:10^8 were compared with the patterns obtained from screening with the control sera from clinically healthy donors and to background incubations. […] 5′- and 3′-tag sequencing of these clones was performed, and their sequences were used for BLAST searches against public databases at NCBI.
Using serum pool #1 (paraprotein type: 15 IgA, 88 IgG, 11 oligoclonal, n=114) we identified 14 putative paraprotein targets on the human protein filter array (FIG. 1, Tab. 1). […] Sequence searches and comparisons using the in-frame sequences identified five known proteins and one unknown gene product derived from chromosome 8.

| Signal-quality (paraprotein-binding quality/strength) [2] | Molecule | effect on hyperphosphorylation of paratarg [1] | further results |
| --- | --- | --- | --- |
| ± | MPMGp800J11592: RZPD clone, NM_001294.1 (protein, UniProt O96005 2-669, looked up) Putative lipid scramblase …: AAAQEADGARSAVVAAGGGSSGQVTSNGSIGRDPPAETQPQNPPAQPAPNAWQVIKGVLFRIFIIWAISSWFRRGPAPQDQAGPGGAPRVASRNLFPKDTLMNLHVYISEHEHFTDFNATSALFWEQHDLVYGDWTSGENSDGCYEHFAELDIPQSVQQNGSIYIHVYFTKSGFHPDPRQKALYRRLATVHMSRMINKYKRRRFQKTKNLLTGETEADPEMIKRAEDYGPVEVISHWHPNITINIVDDHTPWVKGSVPPPLDQYVKFDAVSGDYYPIIYFNDYWNLQKDYYPINESLASLPLRVSFCPLSLWRWQLYAAQSTKSPWNFLGDELYEQSDEEQDSVKVALLETNPYLLALTIIVSIVHSVFEFLAFKNDIQFWNSRQSLEGLSVRSVFFGVFQSFVVLLYILDNETNFVVQVSVFIGVLIDLWKITKVMDVRLDREHRVAGIFPRLSFKDKSTYIESSTKVYDDMAFRYLSWILFPLLGCYAVYSLLYLEHKGWYSWVLSMLYGFLLTFGFITMTPQLFINYKLKSVAHLPWRMLTYKALNTFIDDLFAFVIKMPVMYRIGCLRDDVVFFIYLYQRWIYRVDPTRVNEFGMSGEDPTAAAPVAEVPTAAGALTPTPAPTTTTATREEASTSLPTKPTQGASSASEPQEAPPKPAEDKKKD | – | – |
| ++ | MPMGp800B22602: RZPD clone, NM_006762.1 (protein) MDPRLSTVRQTCCCFNVRIATTALAIYHVIMSVLLFIEHSVEVAHGKASCKLSQMGYLRIADLISSFLLITMLFIISLSLLIGVVKNREKYLLPFLSLQIMDYLLCLLTLLGSYIELPAYLKLASRSRASSSKFPLMTLQLLDFCLSILTLCSSYMEVPTYLNFKSMNHMNYLPSQEDMPHNQFIKMMIIFSIAFITVLIFKVYMFKCVWRCYRLIKCMNSVEEKRNSKMLQKVVLPSYEEALSLPSKTPEGGPAPPPYSEV | – | – |

Further lines, the molecule ahead of its results:

| Molecule | Signal-quality (paraprotein-binding quality/strength) [2] | effect on hyperphosphorylation of paratarg [1] | further results |
| --- | --- | --- | --- |
| CN(C)CCCn1cc(C2=C(c3c[nH]c4ccccc34)C(=O)NC2=O)c2ccccc21 [BIM_I, Bisindolylmaleimid I] | – | – | kinase identified by inhibition of paratarg hyperphosphorylation ([1]; LCLs, BIM_I at 6 μM): clearly identified PKCzeta as the kinase responsible |
| O=c1oc2c(O)c(O)cc3c(=O)oc4c(O)c(O)cc1c4c23 [ellagic acid] | – | inhibited | – |
| CN[C@@H]1C[C@H]2O[C@@](C)([C@@H]1OC)n1c3ccccc3c3c4c(c5c6ccccc6n2c5c31)C(=O)NC4 [staurosporine] | – | inhibited | – |
